Test system: collagen-induced arthritis in Lewis rats
Test: CIA model: histopathologic analysis of H&E-stained hind limbs
Format: in vivo, Lewis rat
[1] = hind limbs, CIA induced, 8 animals examined, comparator groups 3-4, dose not given
[2] = CIA rats, 30 mg/kg (Group 7), seven of eight samples

C[C@@H]1C[C@H]2[C@@H]3CCC4=CC(=O)C=C[C@]4(C)[C@@]3(F)[C@@H](O)C[C@]2(C)[C@@]1(O)C(=O)CO [dexamethasone]
Erosion/Ulcer, cartilaginous, Marked, number of animals [1]: 0 | Erosion/Ulcer, cartilaginous, Mild, number of animals [1]: 0 | Erosion/Ulcer, cartilaginous, Minimal, number of animals [1]: 0 | Erosion/Ulcer, cartilaginous, Moderate, number of animals [1]: 0 | Granulation tissue, Marked, number of animals [1]: 0 | Granulation tissue, Mild, number of animals [1]: 0 | Granulation tissue, Minimal, number of animals [1]: 0 | Granulation tissue, Moderate, number of animals [1]: 0 | Increased bone, periosteum, Marked, number of animals [1]: 0 | Increased bone, periosteum, Mild, number of animals [1]: 0 | Increased bone, periosteum, Minimal, number of animals [1]: 0 | Increased bone, periosteum, Moderate, number of animals [1]: 0 | Increased eroded surface, bone, Marked, number of animals [1]: 0 | Increased eroded surface, bone, Mild, number of animals [1]: 0 | Increased eroded surface, bone, Minimal, number of animals [1]: 0 | Increased eroded surface, bone, Moderate, number of animals [1]: 0 | Mixed cell inflammation, Marked, number of animals [1]: 0 | Mixed cell inflammation, Mild, number of animals [1]: 0 | Mixed cell inflammation, Minimal, number of animals [1]: 0 | Mixed cell inflammation, Moderate, number of animals [1]: 0 | No Visible Lesions, number of animals [1]: 8

CNC(=O)c1[nH]c(C(=O)NC2CCC2)cc1O[C@@H](C)c1ccccc1 [Example 101, N^5-cyclobutyl-N^2-methyl-3-(1-phenylethoxy)-1H-pyrrole-2,5-dicarboxamide]
articular cartilage erosion or ulcers (CIA rats, 3 mg/kg (Group 5)): mild to moderate | granulation tissue (pannus) (CIA rats, 3 mg/kg (Group 5)): mild to moderate | increased eroded surface of bone (bone resorption) (CIA rats, 3 mg/kg (Group 5)): mild to moderate | increased periosteal bone (periosteal bone formation) (CIA rats, 3 mg/kg (Group 5)): mild to moderate | mixed cell inflammation (CIA rats, 3 mg/kg (Group 5)): moderate to marked | erosion in the articular cartilages (CIA rats, 10 mg/kg (Group 6)): moderate | granulation tissue (pannus) (CIA rats, 10 mg/kg (Group 6)): moderate | increased eroded surface of bone (bone resorption) (CIA rats, 10 mg/kg (Group 6)): moderate | increased periosteal bone (periosteal bone formation) (CIA rats, 10 mg/kg (Group 6)): moderate | mixed cell inflammation (CIA rats, 10 mg/kg (Group 6)): moderate | samples with no recorded pathological observations (CIA rats, 30 mg/kg (Group 7)): One out of eight samples | erosion in the articular cartilages [2]: mild | granulation tissue (pannus) [2]: moderate | increased eroded surface of bone (bone resorption) [2]: mild | increased periosteal bone (periosteal bone formation) [2]: mild | mixed cell inflammation [2]: moderate | pathologic observations after microscopic evaluation (overall) (CIA rats, Groups 5-7 (3, 10, 30 mg/kg)): at lower levels relative to samples from animals in the CIA-induced group (Group 2) in a dose-dependent manner | Erosion/Ulcer, cartilaginous, Mild, number of animals (hind limbs, CIA induced, 8 animals examined, 30 mg/kg (Group 7)): 4
